According to patent US20080226565A1, “Anticariogenic Proteins & Peptides & Saccharides” (priority 2004, published 2008):

Tests used:
Set-up in all cases: species or system human
[1] = Determination of the PF-value: Knoop micro hardness of tooth samples coated with product, then saliva and acetic acid (in-vitro)
Excerpt: The capacity to protect teeth against caries can be measured with a technique well known in the art (U.S. Pat. No. 5,279,814). Demineralization with acid, decreases the hardness of the tooth surface. The hardness can be quantified indirectly by measuring the depth of penetration of a needle in the surface (measurement of micro hardness). With this procedure, so called “Knoop” method, the needle is penetrating the surface under the pressure of constant weight and leaves a mark on the surface that allows the calculation of the depth of penetration. The more the tooth is suffering from demineralization, the softer its surface will get and the larger the depth of penetration will be (Knoop F., Peters C. G., Emerson W. B., A Sensitive Pyramidal Diamond Tool for Identation Measurments, J. Res. Natn. Bur. Stand. 23, 39-61 (1939).
The procedure includes the determination of the hardness of a human tooth sample with the Knoop method. Subsequently, the tooth is treated with an experimental protecting product outside the oral cavity.
It is cleaned softly with a paper towel until the coating is invisible.
Subsequently the tooth sample is submerged in a batch of human saliva in order to simulate the conditions in the oral cavity. After removal from the saliva batch (after 30 min.) it is treated with acid over a constant time period of 30 min. at 37° C. The acid is washed away, the tooth is dried on air and the hardness is measured again. The change in hardness (delta P in μm) is obtained by comparing with the hardness of the tooth before treatment. This experiment is repeated on other tooth samples. The effect of acid on unprotected teeth is obtained by carrying out the same procedure but without the use of an experimental protecting product (delta Pa). The protecting capacity (“PF” protection factor) of an experimental protecting compound can be defined as: […]
The ability of a product to protect teeth (PF-value) is determined with the Knoop method. A tooth sample, size 3×3×3 mm is cut from a human tooth and embedded into polymerizing resin in such a way that the surface of the tooth sample appears on the surface of the (resin) cube after the resin has become solid. The surface of the tooth is mechanically polished with rotating silicon carbide abrasive paper (Struers P1200-P2400-P4000) and the micro hardness of the enamel is determined with a Knoop diamant needle (Leitz-Wetzlar;
microdurometer “Durimet”; weight 50 gr; penetration-time: 30 seconds (Collys et al., J. Dent. Res. 1990; 69: 458-462)).
The penetration leaves a mark on the tooth surface, which is related to the depth of penetration (μm) and which can be analyzed under the microscope. […] The determination of the depth of penetration is repeated six times on each of the tooth samples and the average value is calculated. In order to determine the effect of acid on the hardness of the surface, use is made of an acetic acid buffer from Merck (pH 5; 0.1N). One drop of acid is positioned on the enamel for a period of 30 minutes at 37° C. The sample is cleaned with demineralized water and dried. The hardness is measured again according to the method of Knoop. This procedure is repeated 4 times, which means that the sample has been subjected to acid for a total period of two hours.
A graph (Y: penetration depth μm; X: 5 treatment stages) can be made on the basis of 5 average values (each of them based on six measurement), one obtained before treatment with acid, and the other 4 obtained after each of the 4 treatment-stages with acid. A logaritmic regressionline is calculated.

[2] = In-vivo: radiated tooth samples treated with protector, 5 days in the oral cavity, Knoop hardness; conditions: for delta: change of hardness (increase of depth of penetration): radiation + 5 days in oral cavity, 0.1% fluoride or 4% bisphosphonate e-polylysine with CaCl2 and KH2PO4
Excerpt: A device is constructed that can contain up to 6 experimental tooth samples for positioning in the oral cavity. […] The construction of the experimental tooths samples is outlined in chapter C.2.“Results; in-vivo experiments”. In the oral cavity, the tooth samples are positioned in the device in such a way that the enamel surfaces are subjected to physical contact with the tongue and are submerged in saliva. […] In experiments where the device is residing a long time period in the oral cavity (5 days and more), a metal network is positioned just above the surface of the experimental teeth, in order to provide support for the bacteria and stimulate it's growth path. It is also possible to measure the residual protection competence by removing the tooth samples from the oral cavity at the end of the selected residence time and treating them with acid under laboratory conditions.
The device was positioned after the lower jaw in the oral cavity for a period of five days. After removal from the oral cavity, the samples where cleaned and the hardness was measured.
(§1) Tooth samples have been cut in horizontal slices (thickness: 0.3 to 1 mm) with a Leitz 1600 tooth cutter with horizontal cutting blade; the slices are cut manually (with a bore) into small tooth samples that contain a small part of the original tooth surface. The tooth sample is positioned in a small plastic tube, that has been cut from a long plastic tube with 6 mm external diameter. The length of the tube is 3 to 6 mm. The inner part of the tube is filled with a polymer that hardens under light (Photoclearfil Bright; Kuraray). The tooth sample is positioned in the soft polymer inside the tube, in such a way that the original tooth surface is just surfacing above the tube. Finally the polymer is hardened with a light source. The tooth surface is polished with Struers silicon carbid paper (800-4000) and the hardness is measured 5 times on each of the samples under the Letiz Wetzlar microscope (weight on needle: 50 p). Tooth samples with a maximum average depth of penetration of 43 μm are retained for use in the oral cavity.
Tooth samples have been subjected to a radiation dose that is equal to the amount that is given to patients with oral cancer (20 Gray) and have been sterilized. […] A drop of the solution was positioned on the tooth surface and allowed to reside for a period of 30 minutes at 37 C.; the procedure was repeated after removal of the drop with pressured air. Finally the drop was removed, the tooth was dried on air and fixed to the device. In total six tooth samples have been fixed to the device and positioned in the oral cavity after the lower jaw. It remained in the oral cavity for a period of 5 days (day and night). After completion of the required residence time, the device was removed from the oral cavity and the experimental teeth where separated from the device and washed. The hardness was measured according to the Knoop method, six times on each of the tooth samples.
B: the stage at which the hardness of the tooth surface has been measured with the Knoop method. (before the treatment; after radiation and before addition of protector formulation to the surface; after addition of protector to the surface of the tooth and after residing five days in the oral cavity).
B: the stage at which the hardness of the tooth surface has been measured with the Knoop method.

[3] = In-vivo: residual protection, radiated samples after 5 days in oral cavity treated with acetic acid
Excerpt: N: number of tooth samples A: hardness(μm) after radiation and 5 days residence in the oral cavity B: hardness after radiation and 5 days in the oral cavity and treatment with acetic acid

[4] = In-vivo: tooth samples treated with peptide, 12 hours in the oral cavity, then acetic acid, Knoop hardness
Experimental: In another experiment, 126 sterilized tooth samples where treated with a variety of peptides, fixed to the device and positioned after the lower jaw in the oral cavity of 5 volunteers. The device remained in the oral cavity for a period of 12 hours after which the teeth where removed, cleaned and subjected to a drop of acetic acid (0.1N, 30 min., 37° C). Subsequently the acid was removed, the teeth where cleaned and the hardness was measured (Knoop method). The depth of penetration increased 8.82 μm, 5.40 μm, 5.32 μm and 3.77 μm respectively for teeth treated as blanco with 4.2% casein phosphopeptide e-polylysine copolymer, 7.5% phosvitin and with 4.2% bisphosphonylated e-polylysine. The p-values are respectively 0.000, 0.000 and 0.004 for casein phosphopeptide e-polylysine copolymer, bisphosphonylated e-polylysine and phosvitin.
as §1
The tooth-samples are fixed to a device that has been described in the chapter “Description of the invention ( chapter: In-vivo experiments)” and the device is positioned in the oral cavity after the lower jaw.
A drop from a solution containing either, e-polylysine, CPP, bisphoshphonylated e-polylysine, casein phosphopeptide epsilon-polylysine copolymer or partially hydrolysed phosvitin has been positioned at the surface of tooth samples for a period of 30 minutes at 37 C.; the drop was removed and the procedure was repeated once more. All solutions contained also 3.1% CaCl2.2H2O and 1.7% KH2PO4 (except for the one containing e-polylysine).
The tooth surface was cleaned with a soft paper towel until it was visibly clean. Four such tooth samples where fixed to the device and located in the oral cavity behind the lower jaw. They resided in the oral cavity for a period of 12 hours (only to be removed during eating). Subsequently, they where removed, cleaned and the tooth surface was treated with a drop of acetic acid (0.1N, 30 min., 37° C.); the acid was removed, the tooth was washed with deionized water and the hardness was evaluated.
A: type of peptide ingredient in the solution (% on a w/w basis versus water). (*): the teeth where submerged (30 min.) in a saliva batch and dried afterwards on air, before they where treated with a solution that contained bisphosphonylated e-polylysine. B: Average initial hardness of the tooth surface; μm (st. dev.) C: Average hardness after treatment, after residing in the oral cavity and treatment with acid D: The average change in hardness (C−B) E: p-value (against blanco) of the Mann-Whitney statistical test F: the number of tooth samples that where treated with a specific formulation; hardness on each of the tooth samples was measured five times and an average value was calculated; most often 4 tooth samples per person; 5 volunteers participated to the experiment; the 132 tooth samples where randomized into groups (of 4 teeth) with the same average hardness value.

[5] = gel: 4.2% hydroxyethylcellulose, 0.3% NaF, pH 8.8
[6] = 4.2% w/w solution, 12 hours oral cavity, acetic acid 0.1N 30 min

## [F-].[Na+] [Product IV, sodium fluoride, reference compound]
[1]; 0.1% product/water w/w
  PF factor: 61
[1]; gel with 0.3% sodium fluoride only
  PF: 68%
[1]; [5]
  PF: 68.1
  delta P: 18.8 μm
[2]; after protector and 5 days oral cavity, 0.1% NaF or 4% bisphosphonate e-polylysine with CaCl2 and KH2PO4
  Mean hardness (depth of penetration): 42.77 μm
[2]; after radiation, before addition of protector (baseline of group)
  Mean hardness (depth of penetration): 40.97 μm
[2]; after radiation, before addition of the formulation
  delta: change of hardness: −0.13 μm
[2]
  delta: change of hardness (increase of depth of penetration): 1.67 μm
[2]; listed as NaF
  delta: change of hardness (increase of depth of penetration): 1.8 μm
[2]; start, before treatment (baseline of group)
  Mean hardness (depth of penetration): 41.10 μm
[3]; acetic acid 0.1N, 30 min, 37° C. after 5 days in oral cavity
  C: B−A (increase of depth of penetration by acid): 6.5 μm
[3]; acetic acid 0.1N, pH 5, 30 min, 37° C.
  B: hardness after radiation and 5 days in the oral cavity and treatment with acetic acid: 48.4 μm
[3]; samples later treated with acid
  A: hardness after radiation and 5 days residence in the oral cavity: 41.9 μm

## Partially hydrolyzed phosvitin, (Phos-h) [Product 5]
[1]; versus natural phosvitin
  more protection competence in comparison to natural phosvitin: 25%

## Natural phosvitin (Phos) [Product 3, reference compound]
[4]; 7.5% w/w solution
  D: average change in hardness (C−B): 5.32 μm

## Polymerized (CPP) = (CPP)n [Product 2]
[1]; 7.2% product/water w/w
  PF factor: 58

## Casein phosphopeptide (CPP) [Product 1, reference compound]
[4]; [6]
  C: Average hardness after treatment, after residing in the oral cavity and treatment with acid: 47.60 (2.53) μm
  D: average change in hardness (C−B): 6.78 μm
[4]; group for 4.2% solution, before treatment
  B: Average initial hardness of the tooth surface (st. dev.): 40.82 (0.73) μm

## NC(CO)(CO)CO [Product V, Tris(hydroxymethyl)aminoethane, reference compound]
[1]; 3.4% product/water w/w
  PF factor: 35
